In patent US20110312973A1, “SOLID COMPOSITIONS” (priority 2010, published 2011):

Assay: Aqueous solubility
Assay type: physicochemical

Cc1cnc(C(=O)N[C@H]2CCCCC/C=C\[C@@H]3C[C@@]3(C(=O)NS(=O)(=O)C3CC3)NC(=O)[C@@H]3C[C@@H](Oc4nc5ccccc5c5ccccc45)CN3C2=O)cn1 [Compound I, (2R,6S,13aS,14aR,16aS,Z)-N-(cyclopropylsulfonyl)-6-(5-methylpyrazine-2-carboxamido)-5,16-dioxo-2-(phenanthridin-6-yloxy)-1,2,3,5,6,7,8,9,10,11,13a,14,14a,15,16,16a-hexadecahydrocyclopropa[e]pyrrolo[1,2-a][1,4]diazacyclopentadecine-14a-carboxamide]
aqueous solubility: low aqueous solubility
